ChEMBL document CHEMBL1949621, “Fluorocyclines. 1. 7-fluoro-9-pyrrolidinoacetamido-6-demethyl-6-deoxytetracycline: a potent, broad spectrum antibacterial agent” (J Med Chem, 2012)
≈ marks a conversion by molar mass, not a printed value.

Tests used:
Assay type in all cases: functional
Staphylococcus aureus [1] = assay: Antibacterial activity against Staphylococcus aureus ATCC 101 29213
Staphylococcus aureus [2] = assay: Antibacterial activity against tetracycline- and methicillin-resistant Staphylococcus aureus 161
Staphylococcus aureus [3] = assay: microbe, parasite or virus in culture; conditions: 158
Enterococcus faecalis [4] = assay: Antibacterial activity against Enterococcus faecalis ATCC 103 29212
Enterococcus faecalis [5] = assay: Antibacterial activity against tetracycline-resistant Enterococcus faecalis 159
Streptococcus pneumoniae [6] = assay: microbe, parasite or virus in culture; conditions: ATCC 106 49619
Description: Antibacterial activity against Streptococcus pneumoniae ATCC 106 49619

Streptococcus pneumoniae [7] = assay: Antibacterial activity against tetracycline-resistant Streptococcus pneumoniae 160
Escherichia coli [8] = assay: Antibacterial activity against Escherichia coli ATCC 107 25922
Escherichia coli [9] = assay: Antibacterial activity against tetracycline-resistant Escherichia coli 155
Acinetobacter baumannii = assay: Antibacterial activity against Acinetobacter baumannii ATCC 19606 110
Pseudomonas aeruginosa = assay: Antibacterial activity against Pseudomonas aeruginosa ATCC 111 27853
Enterobacter cloacae = assay: Antibacterial activity against Enterobacter cloacae ATCC 108 13047
Klebsiella pneumoniae [10] = assay: Antibacterial activity against Klebsiella pneumoniae ATCC 109 13883
Klebsiella pneumoniae [11] = assay: Antibacterial activity against tetracycline-resistant Klebsiella pneumoniae 153

Structure (SMILES)	MIC (Staphylococcus aureus [1]) [µg/mL]	MIC (Staphylococcus aureus [2]) [µg/mL]	MIC (Staphylococcus aureus [3]) [µg/mL]	MIC (Enterococcus faecalis [4]) [µg/mL]	MIC (Enterococcus faecalis [5]) [µg/mL]	MIC (Streptococcus pneumoniae [6]) [µg/mL]	MIC (Streptococcus pneumoniae [7]) [µg/mL]	MIC (Escherichia coli [8]) [µg/mL]	MIC (Escherichia coli [9]) [µg/mL]	MIC (Acinetobacter baumannii) [µg/mL]	MIC (Pseudomonas aeruginosa) [µg/mL]	MIC (Enterobacter cloacae) [µg/mL]	MIC (Klebsiella pneumoniae [10]) [µg/mL]	MIC (Klebsiella pneumoniae [11]) [µg/mL]
CN(C)[C@@H]1C(O)=C(C(N)=O)C(=O)[C@@]2(O)C(O)=C3C(=O)c4c(O)c(NC(=O)CN5CC[C@H](F)C5)cc(F)c4C[C@H]3C[C@@H]12	0.25 (≈ 0.434 µM)	0.5 (≈ 0.867 µM)	1 (≈ 1.73 µM)	0.25 (≈ 0.434 µM)	0.25 (≈ 0.434 µM)	0.0156 (≈ 0.0271 µM)	0.0156 (≈ 0.0271 µM)	2 (≈ 3.47 µM)	32 (≈ 55.5 µM)	0.125 (≈ 0.217 µM)	> 32	4 (≈ 6.94 µM)	4 (≈ 6.94 µM)	32 (≈ 55.5 µM)
CN(C)[C@@H]1C(O)=C(C(N)=O)C(=O)[C@@]2(O)C(O)=C3C(=O)c4c(O)c(NC(=O)CN5CC6CCCC6C5)cc(F)c4C[C@H]3C[C@@H]12 (stereo partly specified)	0.5 (≈ 0.835 µM)	1 (≈ 1.67 µM)	0.5 (≈ 0.835 µM)	0.25 (≈ 0.418 µM)	0.5 (≈ 0.835 µM)	0.125 (≈ 0.209 µM)	0.06 (≈ 0.1 µM)	1 (≈ 1.67 µM)	2 (≈ 3.34 µM)	0.06 (≈ 0.1 µM)	> 32	4 (≈ 6.68 µM)	2 (≈ 3.34 µM)	4 (≈ 6.68 µM)
CN(C)[C@@H]1C(O)=C(C(N)=O)C(=O)[C@@]2(O)C(O)=C3C(=O)c4c(O)c(NC(=O)CN5Cc6ccccc6C5)cc(F)c4C[C@H]3C[C@@H]12	0.25 (≈ 0.412 µM)	0.5 (≈ 0.824 µM)	0.25 (≈ 0.412 µM)	0.25 (≈ 0.412 µM)	0.5 (≈ 0.824 µM)	0.125 (≈ 0.206 µM)	0.125 (≈ 0.206 µM)	2 (≈ 3.3 µM)	4 (≈ 6.59 µM)	0.125 (≈ 0.206 µM)	> 32	32 (≈ 52.8 µM)	4 (≈ 6.59 µM)	32 (≈ 52.8 µM)
CN(C)[C@@H]1C(O)=C(C(N)=O)C(=O)[C@@]2(O)C(O)=C3C(=O)c4c(O)c(NC(=O)CNc5cccnc5)cc(F)c4C[C@H]3C[C@@H]12	4 (≈ 6.88 µM)	> 32	> 32	8 (≈ 13.8 µM)	> 32	0.25 (≈ 0.43 µM)	2 (≈ 3.44 µM)	16 (≈ 27.5 µM)	> 32	> 8	> 32	> 32	32 (≈ 55 µM)	> 32
CN(C)[C@@H]1C(O)=C(C(N)=O)C(=O)[C@@]2(O)C(O)=C3C(=O)c4c(O)c(NC(=O)CN5CCOCC5)cc(F)c4C[C@H]3C[C@@H]12	4 (≈ 6.96 µM)	8 (≈ 13.9 µM)	8 (≈ 13.9 µM)	8 (≈ 13.9 µM)	8 (≈ 13.9 µM)	0.5 (≈ 0.87 µM)	1 (≈ 1.74 µM)	> 32	> 32	8 (≈ 13.9 µM)	> 32	> 32	> 32	> 32
CN(C)[C@@H]1C(O)=C(C(N)=O)C(=O)[C@@]2(O)C(O)=C3C(=O)c4c(O)c(NC(=O)CN5CCC5)cc(F)c4C[C@H]3C[C@@H]12	0.125 (≈ 0.23 µM)	0.25 (≈ 0.459 µM)	0.5 (≈ 0.918 µM)	0.0625 (≈ 0.115 µM)	0.125 (≈ 0.23 µM)	0.0156 (≈ 0.0286 µM)	0.0156 (≈ 0.0286 µM)	0.25 (≈ 0.459 µM)	8 (≈ 14.7 µM)	2 (≈ 3.67 µM)	8 (≈ 14.7 µM)	1 (≈ 1.84 µM)	1 (≈ 1.84 µM)	4 (≈ 7.35 µM)
CC(C)NCC(=O)Nc1cc(F)c2c(c1O)C(=O)C1=C(O)[C@]3(O)C(=O)C(C(N)=O)=C(O)[C@@H](N(C)C)[C@@H]3C[C@@H]1C2	0.125 (≈ 0.229 µM)	0.25 (≈ 0.457 µM)	0.5 (≈ 0.915 µM)	0.0625 (≈ 0.114 µM)	0.0625 (≈ 0.114 µM)	0.0156 (≈ 0.0285 µM)	0.0156 (≈ 0.0285 µM)	0.5 (≈ 0.915 µM)	8 (≈ 14.6 µM)	1 (≈ 1.83 µM)	16 (≈ 29.3 µM)	1 (≈ 1.83 µM)	1 (≈ 1.83 µM)	4 (≈ 7.32 µM)
CN(C)[C@@H]1C(O)=C(C(N)=O)C(=O)[C@@]2(O)C(O)=C3C(=O)c4c(O)c(NC(=O)CN5CC[C@@H](O)C5)cc(F)c4C[C@H]3C[C@@H]12	2 (≈ 3.48 µM)	2 (≈ 3.48 µM)	16 (≈ 27.8 µM)	2 (≈ 3.48 µM)	2 (≈ 3.48 µM)	0.25 (≈ 0.435 µM)	0.5 (≈ 0.87 µM)	4 (≈ 6.96 µM)	> 32	32 (≈ 55.7 µM)	> 32	16 (≈ 27.8 µM)	16 (≈ 27.8 µM)	> 32
CN(C)[C@@H]1C(O)=C(C(N)=O)C(=O)[C@@]2(O)C(O)=C3C(=O)c4c(O)c(NC(=O)CNCC(F)(F)F)cc(F)c4C[C@H]3C[C@@H]12	1 (≈ 1.71 µM)	2 (≈ 3.41 µM)	4 (≈ 6.82 µM)	2 (≈ 3.41 µM)	4 (≈ 6.82 µM)	0.5 (≈ 0.853 µM)	1 (≈ 1.71 µM)	> 16	> 32	> 2	> 32	> 32	32 (≈ 54.6 µM)	> 32
